Data taken from patent US12162840B2, “Herbicidal compositions” (SYNGENTA PARTICIPATIONS AG, priority 2018, dated 2024).

Experiments:
Format in all cases: in vivo
[1] = tested on: Amaranthus retoflexus (AMARE); experiment: B1 Post-emergence efficacy Test 1; details: post-emergence application, 1000 g/ha, evaluated after 13 days
Protocol: (§1) Seeds of a variety of test species are sown in standard soil in pots:—Solanum nigrum (SOLNI), Amaranthus retoflexus (AMARE), Setaria faberi (SETFA), Alopecurus myosuroides (ALOMY), Echinochloa crus-galli (ECHCG), Ipomoea hederacea (IPOHE), Lolium perenne (LOLPE). After 8 days cultivation (post-emergence) under controlled conditions in a glasshouse (at 24/16° C., day/night; 14 hours light; 65% humidity), the plants are sprayed with an aqueous spray solution derived from the formulation of the technical active ingredient in acetone/water (50:50) solution containing 0.5% Tween 20 (polyoxyethylene sorbitan monolaurate, CAS RN 9005-64-5). Compounds are applied at 1000 g/ha. The test plants are then grown in a glasshouse under controlled conditions in a glasshouse (at 24/16° C., day/night; 14 hours light; 65% humidity) and watered twice daily. After 13 days, the test is evaluated for the percentage damage caused to the plant. The biological activities are assessed on a five point scale (5=80-100%; 4=60-79%; 3=40-59%; 2=20-39%; 1=0-19%). A blank value in the table is indicative that the compound was not tested on that species.

[2] = tested on: Echinochloa crus-galli (ECHCG); experiment: B1 Post-emergence efficacy Test 1; details: post-emergence application, 1000 g/ha, evaluated after 13 days
Protocol: as §1

[3] = tested on: Ipomoea hederacea (IPOHE); experiment: B1 Post-emergence efficacy Test 1; details: post-emergence application, 1000 g/ha, evaluated after 13 days
Protocol: as §1

Lolium perenne (LOLPE) = experiment: B1 Post-emergence efficacy Test 1; details: post-emergence application, 1000 g/ha, evaluated after 13 days
Protocol: as §1

Setaria faberi (SETFA) = experiment: B1 Post-emergence efficacy Test 1; details: post-emergence application, 1000 g/ha, evaluated after 13 days
Protocol: as §1

Solanum nigrum (SOLNI) = experiment: B1 Post-emergence efficacy Test 1; details: post-emergence application, 1000 g/ha, evaluated after 13 days
Protocol: as §1

[4] = tested on: warm season plant species; experiment: B2 Post-emergence efficacy Test 2, warm season plant species; details: 15 days after application, 0-100 scale, 0=no damage, 100=total kill; for Herbicidal activity, ABUTH: Abutilon theophrasti; for Herbicidal activity, AMARE: Amaranthus retroflexus; for Herbicidal activity, BIDPI: Bidens pilosa; for Herbicidal activity, BRAPL: Brachiaria plantaginea; for Herbicidal activity, DIGSA: Digitaria sanguinalis; for Herbicidal activity, ECHCG: Echinochloa crus galli; for Herbicidal activity, ELEIN: Eleisine indica; for Herbicidal activity, EPHHL: Euphorbia hetrophylla; for Herbicidal activity, GLXMA: Glycine max; for Herbicidal activity, IPOHE: Ipomoea hederacea; for Herbicidal activity, ORYSA: Orysa sativa; for Herbicidal activity, PANMI: Panicum miliaceum; for Herbicidal activity, SETFA: Setaria faberi; for Herbicidal activity, SIDSP: Sida spinosa; for Herbicidal activity, SORVU: Sorghum bicolour; for Herbicidal activity, XANST: Xanthium strumarium; for Herbicidal activity, ZEAMX: Zea mays
Protocol: Seeds of a variety of test species (see Table B1) were sown in standard soil in pots. After cultivation for 12 days (post-emergence) under controlled conditions in a glasshouse (at 24/18° C. or 20/16° C., at day/night; 16 hours light; 65% humidity), the plants were sprayed with an aqueous spray solution derived from the formulation of the technical active ingredient dissolved in IF50 (see Table B2 for composition) and adjuvant (Genapol XO80) was added to the spray solution at a rate of 0.2% v/v. [table] [table] After application, the test plants were grown in a glasshouse under controlled conditions (as above) and watered twice daily. Herbicidal activity was evaluated 15 days after application on a 0-100 scale. The results, where 0=no damage to test plant and 100=total kill of test plant are shown below in Tables 6 to 9.

## Cc1nn(C)c(=O)c(-c2c(F)ccc(Cl)c2CCc2ccc(F)cc2)c1O [Compound 1.048]
[1]
  percentage damage caused to the plant, five point scale, AMARE: 5 (5=80-100%)
[2]
  percentage damage caused to the plant, five point scale, ECHCG: 5 (5=80-100%)
[3]
  percentage damage caused to the plant, five point scale, IPOHE: 5 (5=80-100%)
Lolium perenne (LOLPE)
  percentage damage caused to the plant, five point scale, LOLPE: 5 (5=80-100%)
Setaria faberi (SETFA)
  percentage damage caused to the plant, five point scale, SETFA: 5 (5=80-100%)
Solanum nigrum (SOLNI)
  percentage damage caused to the plant, five point scale, SOLNI: 5 (5=80-100%)
[4]; 15 g/Ha
  Herbicidal activity, ABUTH: 60
  Herbicidal activity, AMARE: 60
  Herbicidal activity, BIDPI: 70
  Herbicidal activity, BRAPL: 20
  Herbicidal activity, DIGSA: 0
  Herbicidal activity, ECHCG: 60
  Herbicidal activity, ELEIN: 0
  Herbicidal activity, EPHHL: 50
  Herbicidal activity, GLXMA: 70
  Herbicidal activity, IPOHE: 70
  Herbicidal activity, ORYSA: 0
  Herbicidal activity, PANMI: 0
  Herbicidal activity, SETFA: 0
  Herbicidal activity, SIDSP: 80
  Herbicidal activity, SORVU: 0
  Herbicidal activity, ZEAMX: 0
[4]; 30 g/Ha
  Herbicidal activity, ABUTH: 80
  Herbicidal activity, AMARE: 80
  Herbicidal activity, BIDPI: 70
  Herbicidal activity, BRAPL: 60
  Herbicidal activity, DIGSA: 10
  Herbicidal activity, ECHCG: 80
  Herbicidal activity, ELEIN: 50
  Herbicidal activity, EPHHL: 70
  Herbicidal activity, GLXMA: 80
  Herbicidal activity, IPOHE: 80
  Herbicidal activity, ORYSA: 0
  Herbicidal activity, PANMI: 20
  Herbicidal activity, SETFA: 40
  Herbicidal activity, SIDSP: 80
  Herbicidal activity, SORVU: 30
  Herbicidal activity, ZEAMX: 10
[4]; 60 g/Ha
  Herbicidal activity, ABUTH: 90
  Herbicidal activity, AMARE: 90
  Herbicidal activity, BIDPI: 70
  Herbicidal activity, BRAPL: 80
  Herbicidal activity, DIGSA: 20
  Herbicidal activity, ECHCG: 80
  Herbicidal activity, ELEIN: 60
  Herbicidal activity, EPHHL: 90
  Herbicidal activity, GLXMA: 90
  Herbicidal activity, IPOHE: 100
  Herbicidal activity, ORYSA: 0
  Herbicidal activity, PANMI: 30
  Herbicidal activity, SETFA: 40
  Herbicidal activity, SIDSP: 80
  Herbicidal activity, SORVU: 70
  Herbicidal activity, XANST: 90
  Herbicidal activity, ZEAMX: 50
[4]; 125 g/Ha
  Herbicidal activity, ABUTH: 90
  Herbicidal activity, AMARE: 90
  Herbicidal activity, BIDPI: 70
  Herbicidal activity, BRAPL: 80
  Herbicidal activity, DIGSA: 20
  Herbicidal activity, ECHCG: 90
  Herbicidal activity, ELEIN: 60
  Herbicidal activity, EPHHL: 90
  Herbicidal activity, GLXMA: 90
  Herbicidal activity, IPOHE: 100
  Herbicidal activity, ORYSA: 0
  Herbicidal activity, PANMI: 80
  Herbicidal activity, SETFA: 70
  Herbicidal activity, SIDSP: 90
  Herbicidal activity, SORVU: 70
  Herbicidal activity, XANST: 90
  Herbicidal activity, ZEAMX: 50
[4]; 250 g/Ha
  Herbicidal activity, ABUTH: 90
  Herbicidal activity, AMARE: 100
  Herbicidal activity, BIDPI: 100
  Herbicidal activity, BRAPL: 90
  Herbicidal activity, DIGSA: 50
  Herbicidal activity, ECHCG: 90
  Herbicidal activity, ELEIN: 80
  Herbicidal activity, EPHHL: 100
  Herbicidal activity, GLXMA: 90
  Herbicidal activity, IPOHE: 100
  Herbicidal activity, ORYSA: 10
  Herbicidal activity, PANMI: 100
  Herbicidal activity, SETFA: 80
  Herbicidal activity, SIDSP: 90
  Herbicidal activity, SORVU: 80
  Herbicidal activity, XANST: 90
  Herbicidal activity, ZEAMX: 70
[4]; 500 g/Ha
  Herbicidal activity, ABUTH: 100
  Herbicidal activity, AMARE: 100
  Herbicidal activity, BIDPI: 100
  Herbicidal activity, BRAPL: 100
  Herbicidal activity, DIGSA: 70
  Herbicidal activity, ECHCG: 100
  Herbicidal activity, ELEIN: 80
  Herbicidal activity, EPHHL: 100
  Herbicidal activity, GLXMA: 100
  Herbicidal activity, IPOHE: 100
  Herbicidal activity, ORYSA: 30
  Herbicidal activity, PANMI: 100
  Herbicidal activity, SETFA: 100
  Herbicidal activity, SIDSP: 90
  Herbicidal activity, SORVU: 90
  Herbicidal activity, XANST: 100
  Herbicidal activity, ZEAMX: 100
